Common to all, as to assay: Kinase selectivity, DiscoverX scanMAX Kinase assay panel (% control)
Common to all, as to format: binding

The target in assay [1] is T1, kinases of the scanMAX Kinase assay panel (Homo sapiens, UniProt P45983).
T1 construct: purchased DiscoverX Co. (contract measurement) scanMAX Kinase assay panel
The note with it: JNK1; 1 uM. Put shortly:
(§1)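 Compounds tested at 1 uM against the scanMAX kinase panel. Signal expressed as % control = (compound − positive control)/(DMSO negative control − positive control) × 100, where positive control = 0% and DMSO = 100%; below 35% counted as activity on that kinase.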

Assay [2] has as its target T2, kinases of the scanMAX Kinase assay panel (Homo sapiens, UniProt Q7L7X3).
T2 construct: purchased DiscoverX Co. (contract measurement) scanMAX Kinase assay panel
T2 sequence (Q7L7X3 1-1001): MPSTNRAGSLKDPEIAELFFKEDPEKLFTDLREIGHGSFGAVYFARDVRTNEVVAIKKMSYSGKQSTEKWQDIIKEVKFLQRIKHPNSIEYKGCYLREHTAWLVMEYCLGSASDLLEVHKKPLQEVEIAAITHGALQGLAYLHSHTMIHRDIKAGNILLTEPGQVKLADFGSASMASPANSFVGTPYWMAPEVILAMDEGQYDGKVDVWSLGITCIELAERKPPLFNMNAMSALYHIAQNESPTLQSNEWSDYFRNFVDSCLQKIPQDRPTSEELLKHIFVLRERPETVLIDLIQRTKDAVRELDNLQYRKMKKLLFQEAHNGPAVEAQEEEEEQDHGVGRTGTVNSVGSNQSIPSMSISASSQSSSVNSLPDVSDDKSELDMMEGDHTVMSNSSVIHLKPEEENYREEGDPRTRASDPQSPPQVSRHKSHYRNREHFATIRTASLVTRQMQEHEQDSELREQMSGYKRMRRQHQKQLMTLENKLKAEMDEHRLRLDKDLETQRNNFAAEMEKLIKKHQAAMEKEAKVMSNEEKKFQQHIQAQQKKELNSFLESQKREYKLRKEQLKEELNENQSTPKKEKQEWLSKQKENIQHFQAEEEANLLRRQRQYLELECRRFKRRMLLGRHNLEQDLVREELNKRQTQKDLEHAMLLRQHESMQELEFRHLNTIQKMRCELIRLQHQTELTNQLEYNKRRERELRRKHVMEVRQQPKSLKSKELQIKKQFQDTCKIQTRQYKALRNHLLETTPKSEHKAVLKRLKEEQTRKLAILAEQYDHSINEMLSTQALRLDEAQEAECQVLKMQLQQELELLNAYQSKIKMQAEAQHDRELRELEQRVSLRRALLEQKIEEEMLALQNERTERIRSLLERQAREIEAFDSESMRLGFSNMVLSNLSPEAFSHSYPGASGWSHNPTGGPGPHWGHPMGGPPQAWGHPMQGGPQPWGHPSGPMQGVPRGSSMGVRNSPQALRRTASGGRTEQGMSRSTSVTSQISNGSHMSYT
The note with it: kinase TAOK1; 1 uM in DMSO. The method in brief: as §1

Assay [3] deals with T3, kinases of the scanMAX Kinase assay panel (Homo sapiens, UniProt Q8TDX7).
T3 construct: purchased DiscoverX Co. (contract measurement) scanMAX Kinase assay panel
T3 sequence (Q8TDX7 whole entry): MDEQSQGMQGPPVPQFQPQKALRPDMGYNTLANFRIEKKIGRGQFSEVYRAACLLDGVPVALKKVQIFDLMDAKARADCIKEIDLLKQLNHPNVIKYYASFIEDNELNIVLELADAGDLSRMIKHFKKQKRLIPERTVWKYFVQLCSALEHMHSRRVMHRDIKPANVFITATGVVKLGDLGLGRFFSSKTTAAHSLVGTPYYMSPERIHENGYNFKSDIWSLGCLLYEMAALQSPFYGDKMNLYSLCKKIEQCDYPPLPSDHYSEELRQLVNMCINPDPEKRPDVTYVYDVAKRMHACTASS
The note with it: NEK7; 1 uM. The method in brief:
as §1

For assay [4], the target named is T4, kinases of the scanMAX Kinase assay panel (Homo sapiens, UniProt Q14289).
T4 construct: purchased DiscoverX Co. (contract measurement) scanMAX Kinase assay panel
T4 sequence (Q14289 whole entry): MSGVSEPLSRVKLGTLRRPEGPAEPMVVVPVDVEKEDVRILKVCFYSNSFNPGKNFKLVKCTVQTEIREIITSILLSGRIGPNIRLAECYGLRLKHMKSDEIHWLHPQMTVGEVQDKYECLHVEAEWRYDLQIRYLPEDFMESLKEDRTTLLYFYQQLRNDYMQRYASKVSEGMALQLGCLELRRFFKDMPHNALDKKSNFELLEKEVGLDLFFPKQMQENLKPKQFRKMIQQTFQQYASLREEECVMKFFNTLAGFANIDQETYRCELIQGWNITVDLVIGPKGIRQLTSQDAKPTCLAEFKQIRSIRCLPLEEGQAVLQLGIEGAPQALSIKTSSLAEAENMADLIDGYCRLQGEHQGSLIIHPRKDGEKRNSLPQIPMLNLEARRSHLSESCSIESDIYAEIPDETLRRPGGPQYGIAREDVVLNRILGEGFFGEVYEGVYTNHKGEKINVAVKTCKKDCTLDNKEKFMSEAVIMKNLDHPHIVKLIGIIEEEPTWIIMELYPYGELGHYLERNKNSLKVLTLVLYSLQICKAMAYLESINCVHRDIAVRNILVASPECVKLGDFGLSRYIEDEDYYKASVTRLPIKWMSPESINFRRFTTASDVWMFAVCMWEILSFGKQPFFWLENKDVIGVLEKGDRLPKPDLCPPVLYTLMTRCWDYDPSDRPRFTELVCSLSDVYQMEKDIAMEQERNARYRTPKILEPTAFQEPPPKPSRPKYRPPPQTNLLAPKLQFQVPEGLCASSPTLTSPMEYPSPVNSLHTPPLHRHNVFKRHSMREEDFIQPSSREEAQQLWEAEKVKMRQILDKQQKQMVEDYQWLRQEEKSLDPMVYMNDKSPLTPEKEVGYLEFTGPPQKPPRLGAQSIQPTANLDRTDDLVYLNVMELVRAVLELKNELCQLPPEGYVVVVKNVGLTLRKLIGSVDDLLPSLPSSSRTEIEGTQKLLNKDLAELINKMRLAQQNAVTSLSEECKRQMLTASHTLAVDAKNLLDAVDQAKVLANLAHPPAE
Conditions: PYK2; 1 uM. Put shortly: as §1

Assay [5] deals with T5, kinases of the scanMAX Kinase assay panel (Homo sapiens, UniProt Q8N5S9).
T5 construct: purchased DiscoverX Co. (contract measurement) scanMAX Kinase assay panel
T5 sequence (Q8N5S9 whole entry): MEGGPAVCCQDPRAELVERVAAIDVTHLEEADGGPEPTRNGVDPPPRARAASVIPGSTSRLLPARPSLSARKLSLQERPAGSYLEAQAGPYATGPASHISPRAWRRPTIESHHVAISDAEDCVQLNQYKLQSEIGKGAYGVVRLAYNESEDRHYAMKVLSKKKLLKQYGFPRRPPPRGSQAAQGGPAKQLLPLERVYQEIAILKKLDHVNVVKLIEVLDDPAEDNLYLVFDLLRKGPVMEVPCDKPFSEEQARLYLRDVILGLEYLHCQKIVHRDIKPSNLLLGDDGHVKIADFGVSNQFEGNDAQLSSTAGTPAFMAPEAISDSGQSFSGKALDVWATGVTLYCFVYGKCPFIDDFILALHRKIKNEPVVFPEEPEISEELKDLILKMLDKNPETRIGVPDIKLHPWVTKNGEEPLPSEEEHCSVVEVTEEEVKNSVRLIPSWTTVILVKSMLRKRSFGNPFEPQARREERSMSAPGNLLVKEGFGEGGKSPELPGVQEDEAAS
Conditions: CAMKK1; 1 uM. The method in brief: as §1

Assay [6] has as its target T6, kinases of the scanMAX Kinase assay panel (Homo sapiens, UniProt Q8NE63).
T6 construct: purchased DiscoverX Co. (contract measurement) scanMAX Kinase assay panel
T6 sequence (Q8NE63 1-616): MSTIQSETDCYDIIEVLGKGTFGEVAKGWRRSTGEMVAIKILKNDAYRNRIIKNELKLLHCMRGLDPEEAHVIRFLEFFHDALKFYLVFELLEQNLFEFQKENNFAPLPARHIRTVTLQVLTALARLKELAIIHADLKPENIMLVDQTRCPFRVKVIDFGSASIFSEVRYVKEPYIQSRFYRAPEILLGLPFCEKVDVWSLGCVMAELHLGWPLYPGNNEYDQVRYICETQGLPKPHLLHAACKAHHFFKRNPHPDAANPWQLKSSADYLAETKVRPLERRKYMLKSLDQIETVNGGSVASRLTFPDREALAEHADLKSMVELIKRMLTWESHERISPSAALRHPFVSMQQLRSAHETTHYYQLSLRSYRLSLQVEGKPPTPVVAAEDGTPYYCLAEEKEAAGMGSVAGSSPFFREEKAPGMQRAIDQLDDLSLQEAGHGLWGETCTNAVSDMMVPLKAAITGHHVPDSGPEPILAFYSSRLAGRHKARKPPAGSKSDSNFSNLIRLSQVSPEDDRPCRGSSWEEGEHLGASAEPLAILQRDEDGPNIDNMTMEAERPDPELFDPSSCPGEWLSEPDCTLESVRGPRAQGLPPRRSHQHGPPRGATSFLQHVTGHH
The note with it: HIPK4; 1 uM. The method in brief: as §1

For assay [7], the target named is T7, kinases of the scanMAX Kinase assay panel (Homo sapiens, UniProt P51817).
T7 construct: purchased DiscoverX Co. (contract measurement) scanMAX Kinase assay panel
T7 sequence (P51817 1-358): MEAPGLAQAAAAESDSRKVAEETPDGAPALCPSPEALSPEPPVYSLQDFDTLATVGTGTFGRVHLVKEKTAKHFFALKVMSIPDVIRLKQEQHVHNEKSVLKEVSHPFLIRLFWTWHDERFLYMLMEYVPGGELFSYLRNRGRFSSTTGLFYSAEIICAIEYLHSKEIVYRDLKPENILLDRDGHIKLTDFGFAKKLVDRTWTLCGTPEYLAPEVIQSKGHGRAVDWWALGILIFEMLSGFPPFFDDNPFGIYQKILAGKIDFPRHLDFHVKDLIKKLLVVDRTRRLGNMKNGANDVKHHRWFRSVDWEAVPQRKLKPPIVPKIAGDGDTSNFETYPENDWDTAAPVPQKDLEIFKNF
Conditions: PRKX; 1 uM. The method in brief:
as §1

Assay [8] addresses T8, kinases of the scanMAX Kinase assay panel (Homo sapiens, UniProt Q16816).
T8 construct: purchased DiscoverX Co. (contract measurement) scanMAX Kinase assay panel
The note with it: PHKG1; 1 uM. The method in brief:
as §1

T8 sequence (Q16816 whole entry): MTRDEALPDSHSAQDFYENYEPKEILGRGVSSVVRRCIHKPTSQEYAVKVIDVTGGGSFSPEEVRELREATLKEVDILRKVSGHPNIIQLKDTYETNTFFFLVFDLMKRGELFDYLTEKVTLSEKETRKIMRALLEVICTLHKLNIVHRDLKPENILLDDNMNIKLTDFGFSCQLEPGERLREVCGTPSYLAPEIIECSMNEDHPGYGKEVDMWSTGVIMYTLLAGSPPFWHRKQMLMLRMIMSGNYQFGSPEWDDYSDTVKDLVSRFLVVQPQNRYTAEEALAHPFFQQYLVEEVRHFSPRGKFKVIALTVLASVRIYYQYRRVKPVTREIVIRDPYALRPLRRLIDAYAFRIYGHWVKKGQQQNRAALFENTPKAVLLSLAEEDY
T1 sequence (P45983 whole entry): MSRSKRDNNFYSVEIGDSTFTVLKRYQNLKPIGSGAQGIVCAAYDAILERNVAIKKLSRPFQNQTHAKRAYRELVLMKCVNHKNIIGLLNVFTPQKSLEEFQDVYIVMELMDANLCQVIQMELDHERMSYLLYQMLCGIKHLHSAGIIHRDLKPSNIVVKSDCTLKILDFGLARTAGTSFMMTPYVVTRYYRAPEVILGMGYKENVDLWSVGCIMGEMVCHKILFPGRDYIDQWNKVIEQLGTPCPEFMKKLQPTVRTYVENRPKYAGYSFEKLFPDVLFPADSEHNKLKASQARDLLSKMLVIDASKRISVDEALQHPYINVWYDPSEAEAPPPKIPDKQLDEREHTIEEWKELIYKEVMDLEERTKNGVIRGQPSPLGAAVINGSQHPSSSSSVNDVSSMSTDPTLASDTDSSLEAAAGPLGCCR

In the case of `CNc1nc(Nc2ccc(C(=O)N3CCOCC3)cc2OC)nc2[nH]cc(C#N)c12` [Example 1, 2-((2-methoxy-4-(morpholine-4-carbonyl)phenyl)amino)-4-(methylamino)-7H-pyrrolo[2,3-d]pyrimidine-5-carbonitrile], the remaining binding at 1 µM in assay [1] turned out to be 0%; in assay [2], 73%; in assay [3], 100%; in assay [4], 25%; in assay [5], 81%; in assay [6] it was 95%. Further, the remaining binding at 1 µM in assay [7] worked out at 82%; in assay [8], 13%.

For `CC1(Nc2nc(Nc3cnn([C@H]4CCN(C5COC5)C[C@@H]4F)c3Cl)nc3[nH]cc(C#N)c23)CC1` [Example 52, 2-((5-chloro-1-((3S,4S)-3-fluoro-1-(oxetane-3-yl)piperidine-4-yl)-1H-pyrazole-4-yl)amino)((1-methylcyclopropyl)amino)-7H-pyrrolo[2,3-d]pyrimidine-5-carbonitrile], the remaining binding at 1 µM in assay [1] amounted to 0%; in assay [2], 6.5%; in assay [3] it was 97%; in assay [4], 1.2%; in assay [5], 21%; in assay [6] it was 39%. Also, the results for the remaining binding at 1 µM in assay [7] and in assay [8] were 89% and 11%, respectively.

Regarding `CCNc1nc(Nc2ccc(C(=O)N3CCC(N4CCOCC4)CC3)cc2OC)nc2[nH]cc(C(F)(F)F)c12` [Example 104, (4-((4-(ethylamino)-5-(trifluoromethyl)-7H-pyrrolo[2,3-d]pyrimidine-2-yl)amino)-3-methoxyphenyl)(4-morpholinopiperidine-1-yl)methanone], the remaining binding at 1 µM was 25% in assay [1]; 85% in assay [2]; 94% in assay [3]; 2.8% in assay [4]; 14% in assay [5]; 45% in assay [6]. For the same molecule, the remaining binding at 1 µM was 81% in assay [7] and 1% in assay [8].

For the origin of these results see patent US11208412B2 (DAEGU-GYEONGBUK MEDICAL INNOVATION FOUNDATION, priority 2017, dated 2021).
